Reference: US10188693B2, “Methods for treatment of atherosclerosis” (Stealth BioTherapeutics Corp, priority 2012, dated 2019)
Entries after “also recorded” stand apart in the source; their conditions may differ.

System: Apoprotein E deficient mice
Experiment: Total lesion area in aortic root 300 μm across aortic valve (aortic sinus cryosections, lipid staining)
Type: in vivo
Set-up: Area, total lesion area in aortic root / Area, total lesion area in aortic root, AVE: unit not given here
Settings: 12 weeks
Source text: Apoprotein E deficient mice (Jackson Laboratories, 600 Main Street, Bar Harbor, Me.) were used in this study. The mice were male, 7-8 weeks of age, and between 18-20 g in weight. An initial total cholesterol measurement was made on 30 mice, and the mice were grouped into two groups of 15 to match the total cholesterol measurements. Both groups were fed a “western diet” (40 kcal % butterfat, 0.15% [wt/wt] cholesterol, Harlan Teklad diet TD-88137). Starting at t=0, the control group of 15 mice received vehicle only (phosphate buffered saline at pH 7.4), while the test group of 15 mice received aromatic-cationic peptide reconstituted in phosphate buffered saline. Body weights of the mice were recorded weekly, and mortality checks were performed daily.
The aromatic-cationic peptide D-Arg-2′6′-Dmt-Lys-Phe-NH2 (sterile lyophilized powder, reconstituted in phosphate buffered saline) was tested. […]
For the aortic sinus, the heart and approximately 5 mm of the ascending aorta was cut from the remainder of the aorta. […] The sinus was imaged at 5 step levels in the region of interest, i.e., the aortic root, for a total distance of 300 μm and the lipid-staining areas and measured (total cross sectional area) using a Nikon computerized image analysis system. The data were then computed by group and statistically analyzed.

## D-Arg-2′6′-Dmt-Lys-Phe-NH2
Group average, 300 μm across aortic valve, 1 mg/kg subcutaneously daily
  Area, total lesion area in aortic root, AVE: 282.72
Treated versus vehicle, listed as aromatic-cationic peptide
  total (mean) lesion area in aortic root, in words: reduces; also recorded: lower
